# According to patent US20250248393A1, “METHOD OF RELEASING A SEMIOCHEMICAL IN THE ENVIRONEMENT BY PASSIVE DIFFUSION, SYSTEM AND MEANS, ESPECIALLY STICKS, TO THIS END, AND USES THEREOF” (SIGNS, priority 2024, published 2025):
# Legend:
# Assay type in all cases: physicochemical
# [1] = F3 migration along the stick (top 1 cm, GC/MS); settings: F3, five sticks
# Description: Three devices containing 40 mL of F3 feline facial pheromone product and five […] sticks were prepared and left on diffusion. A t=1 day, T=3 days, T=10 days, T=15 days and T=22 days after preparation of the devices, one stick was taken on each device and 1 cm of the top of each stick was cut, then extracted with acetone 1 h in an ultrasonic bath and analysed by gas chromatography coupled with mass spectrometry (GC/MS). The same analytical parameters were used for the study C with a liquid injection (injected quantity: […]) Blank analysis and matrix blank analysis were also performed.
# [2] = F3P PCDS indirect diffusion, pheromone remaining in solution (GC/FID)
# Description: For this study, three diffusers each containing 40 mL of product and 6 capillaries were prepared and diffused. Once a week, on Wednesdays, the amount of pheromone remaining in the solution was monitored by gas chromatography analysis coupled to a flame ionization detector (GC/FID) until no liquid remained. The percentage of pheromone was measured weekly.
# Next, the percentage of pheromone was checked by external calibration using a GC/FID calibration range.
# Analyses were carried out by gas chromatography coupled to a flame ionization detector. The instrument was a Shimadzu GC 2025® with an AOC20i® autosampler. Separation was performed on an Agilent DB-FFAP® column (30 m×0.25 mm×0.25 μm, stationary phase: nitroterephthalic acid-modified polyethylene glycol). The temperature of the gas chromatography oven was initially maintained at 140° C. for 2 minutes, then increased at 10° C./min to 250° C. and left at this temperature for 3 minutes. The carrier gas was helium at 1 mL/min. Analyses were performed in split mode using a split/splitless injector (temperature: 250° C., split: 1:50).
# The detector used was a flame ionization detector. The detector temperature was 250° C. with an air flow rate of 400 mL/min, hydrogen 40 mL/min and nitrogen 30 mL/min.
# For this purpose, a calibration range was prepared for each analysis. […]
# [3] = F3 direct diffusion and mass loss, 40 mL and eight sticks with a refill; settings: F3, eight sticks
# Description: To that purpose, three devices containing 40 mL of F3 feline facial pheromone product and eight rattan sticks were prepared and left on diffusion. Every Monday, Wednesday and Friday, the diffusion of the pheromone in air was checked by analysis by gas chromatography coupled with mass spectrometer (GC/MS) and SPME (solid phase microextraction) until there was no liquid left. Then, the solution was refilled and a second study of the diffusion of the pheromone was performed.
# Experimentally, the studied device was taken and placed into a closed space under identical conditions than in section E/, and for analyzing the same data.
# Each measuring day, the devices were weighed and the level of the solution in the flask was controlled.
# [4] = Ratios of molecules diffused through the sticks over time
# Description: Furthermore, as small molecules diffuse more, it happens that they lose intensity over the course of the study, so the ratios are different 24 hours after immersing the sticks in the liquid and 21 days later. Here are the ratios for each pheromone studied at the start of the study and at the end.
# [5] = F3 direct diffusion, 120 mL and six sticks; settings: 6 sticks
# Description: To that purpose, three devices containing 120 mL of F3 feline facial pheromone product and six rattan sticks were prepared and left on diffusion as shown on FIG. 43.
# The direct diffusion of F3 pheromone was then studied following the same protocol as the protocol of the first study shown in Section E/herein.
# Each measuring day, the flasks were weighed, and the volume of the liquid was checked visually: see FIGS. 55 and 56.
# [6] = F3 block stability study in sodium stearate aqueous gel (GC-MS); settings: after 3 months
# Description: Aqueous sodium stearate gel is a method used by SIGNS for several of the pheromones it markets (pork, poultry, rabbit). The sodium stearate matrix is cast at high temperature (60° C.) and contains 2% pheromone. In this study, matrix samples are taken by coring, and the active ingredients are extracted by apolar solvent, using the SIGNS-validated quality control method. Extracts are analyzed by GC-MS. […] Given this observation, formula F3 cannot be used in blocks for passive diffusion, so a change of galenic formulation is necessary.
# [7] = F3 sticks device, direct diffusion, 40 mL and four sticks (SPME GC/MS); settings: four sticks
# Description: Three devices containing 40 mL of F3 feline facial pheromone product and four rattan sticks were prepared and left on diffusion. Every Monday, Wednesday and Friday, the diffusion of the pheromone in air was checked by analysis by gas chromatography coupled with mass spectrometer (GC/MS) and SPME (solid phase microextraction) until there is no liquid left (about 22 days).
# To that purpose, the studied device was taken and placed into a closed space (in our case an aquarium turned over) containing the SPME fiber as shown on FIG. 24.
# The SPME fiber was left for two hours to give the time for the molecules to adsorb on the fiber, then the fiber was injected into the GC/MS instrument for analysis.
# Analysis were carried out using gas chromatography with mass spectrometer. The instrument was a GCMS QP2010SE® from Shimadzu with an AOC6000® Autosampler. The separation was performed on a ZB-5 MS® column (30 m×0.25 mm×0.25 μm, stationary phase: 95% Dimethylpolysiloxane, 5% Phenyl-Arylene) from Phenomenex. The GC oven temperature was initially held at 100° C. for 1 minute then increased at a pace of 10° C./min to 120° C. and left at this temperature for 3 minutes. Finally, the oven temperature was increased at a pace of 10° C./min to 240° C. and left at this temperature for 10 minutes. The carrier gas was helium at 1 mL/min. Analysis were performed in split mode using a split/splitless injector (Temperature: 250° C., split: 1:20). The SPME fiber was directly injected into the injector and left for 30 minutes. Separated molecules were detected using a mass spectrometer which was operated in electron impact ionization (EI) in both full scan (FS) and single ion monitoring (SIM) modes, so called FASST (Fast Automated SCAN/SIM type) mode. The interface temperature was set at 300° C. and electron impact source temperature at 250° C. The analyser was a quadrupole.
# For the measurement of the relative quantity of active ingredient spreading in air, the area of the chromatographic peak corresponding to the compound was measured using Shimadzu GCMS-Solution software.
smiles,measurement,setting,value
"COC(=O)CCCCCC(=O)OC [dimethyl pimelate, dimethyl heptanedioate]",quantity on the top of the stick over time,[1],decreased significantly between 5 and 10 days before stabilising
same,relative quantity on the top of the stick,[1],less present
same,quantities found in the solution,[2],very low
same,intensity of direct diffusion,[3],highest diffusion
same,ratio of molecules diffused through the sticks,"[4]; F3, 24 h after immersion of sticks",70 % (w/w)
same,ratio of molecules diffused through the sticks,"[4]; F3, 21 days after immersion of sticks (empty tank)",48 % (w/w)
same,ratio of molecules diffused through the sticks,"[4]; F3P, 24 h after immersion of the sticks",56 % (w/w)
same,ratio of molecules diffused through the sticks,"[4]; F3P, 21 days after immersion of sticks (empty tank)",36.5 % (w/w)
same,direct diffusion over time,[5],decreased over time
same,stability in the block,[6],disappeared completely
same,direct diffusion over time,[7],gradually decreased over time
